Results: patent US11673933B2, “Method for using insulin degludec for the improvement of glycemic control and reduction of acute and long-term diabetes complications” (Novo Nordisk A/S, priority 2016, dated 2023)

Legend:
[1] = test system: individuals with type 2 diabetes and established cardiovascular risk (MACE); assay: CV risk model based on the DEVOTE trial: MACE hazard ratio IDeg/IGlar by CV risk score and subgroup; type: in vivo, human
Experimental: (§1) A long-term, multi-centre, multi-national, randomised, double-blind, parallel-group, active comparator-controlled trial with 7637 human subjects was carried out with treatment that would continue until at least 633 positively adjudicated primary cardiovascular events were accrued. This trial concerned incidence of cardiovascular events in adult human subjects with type 2 diabetes that were at high risk for cardiovascular events, including such subjects with existing cardiovascular disease. The primary objective of this trial was to confirm the cardiovascular safety of insulin degludec compared to that of insulin glargine. The secondary objective was to assess efficacy of insulin degludec on markers of glycaemic control and to assess safety on other parameters in subjects with type 2 diabetes that were at high risk for cardiovascular events.
The results of this trial may be presented herein as a number or fraction of subjects experiencing an event. Alternatively, the results of this trial may be presented with hazard ratios estimated in a Cox proportional hazard model, which is the standard statistical model used for estimating time to an event. The term “hazard ratio” (also referred to as “HR”) as used herein means the instantaneous risk ratio of experiencing an event when administered insulin degludec compared to insulin glargine which are the two treatments in this trial. An upper limit of the 95% confidence interval (CI) for the HR of less than 1.00 means that the estimated treatment ratio between insulin degludec and insulin glargine with respect to the event of interests is statistically significant in favour of insulin degludec on a 5% significance level. A 5% significance level is the standard level for investigating significance in clinical trials.
Based on the DEVOTE trial, a cardiovascular (CV) risk score has been developed for individuals with established cardiovascular risk. This risk score was developed using available medical history, baseline information and cardiovascular events occurring during the trial. […] The variables are listed in descending order according to their impact on the overall risk of major adverse cardiovascular events (MACE), here consisting of cardiovascular death, non-fatal myocardial infarction, or non-fatal stroke. The combination of these variables yields an algorithm that can be used to determine the risk of future MACEs and to determine the benefit of being treated with IDeg compared to IGlar.
The CV risk score and estimated MACE hazard ratio for CV risk scores by quartiles based on number of events are presented in FIG. 1. […] This benefit is seen regardless of which of the individual predictors contribute to the high score.
For example, subjects with a BMI ≥30 kg/m^2 and diastolic blood pressure ≥80 mmHg, and subjects with a diastolic blood pressure ≥80 mmHg who were treated with statins would have a benefit with IDeg compared to IGlar in terms of risk of MACE (Table 25).

[2] = test system: human subjects with type 2 diabetes inadequately controlled with basal insulin and metformin; assay: Example 4: 26-week double-blind trial, IDegLira vs IDeg, both added to metformin
Experimental: (§2) A 26-week randomised, parallel two-arm, double-blind, multi-centre, multinational, treat-to-target trial in 413 human subjects with type 2 diabetes inadequately controlled with basal insulin and metformin with or without SU or glinides was carried out comparing the efficacy and safety of insulin degludec+liraglutide (Xultophy®, IDegLira) once daily with insulin degludec (Tresiba®, IDeg) once daily both added on to metformin. […] The secondary objective was to compare the overall efficacy and safety parameters of IDegLira and IDeg after 26 weeks of treatment. All trial endpoints were collected and assessed throughout the entire duration of the trial.
(§3) Eligible subjects were randomised 1:1 to either once daily IDegLira or once daily IDeg, both in combination with metformin. […] For each subject, the duration of the trial was to be approximately 29 weeks: up to 2 weeks between screening and first treatment, 26 weeks of treatment and at least 1 week of wash-out at the end of the trial.
(§4) The IDegLira dosing unit is defined as a dose step. One (1) IDegLira dose step consists of 1 unit insulin degludec and 0.036 mg liraglutide. Treatment with IDegLira was initiated at 16 dose steps containing 16 units insulin degludec and 0.6 mg liraglutide. Adjustment of the IDegLira dose was performed twice weekly based on the mean of 3 preceding daily fasting SMPG values on 3 consecutive days. Adjustments occurred in 2 dose steps aiming at a fasting glycaemic target of 4.0-5.0 mmol/L (72-90 mg/dL). The maximum allowed dose was 50 dose steps (50 units IDeg/1.8 mg liraglutide). IDeg treatment was initiated with 16 units, and titrated twice weekly to the fasting glycaemic target of 4.0-5.0 mmol/L (72-90 mg/dL) based on the mean fasting SMPG from 3 proceeding measurements as described for IDegLira. The maximum allowed dose was 50 units.
(§5) Subjects received IDegLira or IDeg by subcutaneous administration in addition to metformin. IDegLira or IDeg was injected subcutaneously in the thigh, upper arm (deltoid region) or abdomen once daily preferably at the same time every day. The injection area chosen were to remain unchanged throughout the trial, but rotation within the area was recommended.

[3] = test system: adult human subjects with type 2 diabetes at high risk for cardiovascular events; assay: Example 1 cardiovascular outcomes trial (DEVOTE), insulin degludec vs insulin glargine: SMPG and blood pressure variability; type: in vivo
Experimental: as §1
Subjects were randomised 1:1 in a double-blinded manner to receive blinded insulin degludec or blinded insulin glargine, each added to standard of care. […] For subjects receiving premixed/biphasic insulin OD, the basal component was calculated and transferred unit-to-unit to investigational product OD. The bolus insulin component was calculated and transferred unit-to-unit to bolus insulin and given at the most appropriate meal at the investigator's discretion. For subjects receiving premixed/biphasic insulin twice daily (or more), the total basal component was calculated, reduced by 20-30% and transferred to investigational product OD; the bolus component was to be calculated and transferred to insulin aspart and dosed with the most appropriate meals at the investigator's discretion. […]
Subjects adjusted their basal insulin dose weekly, aiming for a pre-breakfast (fasting) SMPG value of 71-90 mg/dL (4.0-5.0 mmol/L) by using the algorithm in Table 6. The basal dose was adjusted based on the lowest of three pre-breakfast SMPG values, preferably measured two days prior to dose adjustment and on the day of the dose adjustment. […]

[4] = test system: human subjects with type 2 diabetes inadequately controlled with basal insulin and metformin; settings: in vivo
Experimental: as §2, §3, §4, §5

## N^εB29-(N^α-(HOOC(CH2)14CO)-γ-Glu) desB30 human insulin [IDeg]
[1]; CV risk score High
  HR (MACE, IDeg/IGlar): 1.04
[1]; CV risk score Low
  HR (MACE, IDeg/IGlar): 1.02
[1]; CV risk score Moderate
  HR (MACE, IDeg/IGlar): 0.89
[1]; CV risk score Very High
  HR (MACE, IDeg/IGlar): 0.67
[1]; patients who have a high CV risk score
  hazard ratio IDeg/IGlar (risk of MACE): < 1
[1]; subgroup: Age 65-75 years AND systolic blood pressure < 140 mmHg
  Estimate (risk of MACE, IDeg compared to IGlar): 0.70
[1]; subgroup: Age < 65 years AND diastolic blood pressure ≥ 80 mmHg
  Estimate (risk of MACE, IDeg compared to IGlar): 0.64
[1]; subgroup: Age < 65 years AND treated with statins
  Estimate (risk of MACE, IDeg compared to IGlar): 0.75
[1]; subgroup: BMI ≥ 30 kg/m^2 AND diastolic blood pressure ≥ 80 mmHg
  Estimate (risk of MACE, IDeg compared to IGlar): 0.68
[1]; subgroup: Diastolic blood pressure < 90 mmHg AND HDL ≥ 1.0 mmol/L
  Estimate (risk of MACE, IDeg compared to IGlar): 0.80
[1]; subgroup: Diastolic blood pressure ≥ 80 mmHg AND treated with statins
  Estimate (risk of MACE, IDeg compared to IGlar): 0.73
[1]; subgroup: Diastolic blood pressure ≥ 80 mmHg AND triglycerides > 1.7 mmol/L
  Estimate (risk of MACE, IDeg compared to IGlar): 0.69
[1]; subgroup: Established CV risk AND HDL ≥ 1.0 mmol/L
  Estimate (risk of MACE, IDeg compared to IGlar): 0.78
[1]; subgroup: Established CV risk AND diastolic blood pressure ≥ 80 mmHg
  Estimate (risk of MACE, IDeg compared to IGlar): 0.76
[1]; subgroup: Established CV risk AND pulse ≥ 70 bpm
  Estimate (risk of MACE, IDeg compared to IGlar): 0.80
[1]; subgroup: Height <170 cm AND treated with statins
  Estimate (risk of MACE, IDeg compared to IGlar): 0.75
[1]; subgroup: Non-White AND diastolic blood pressure < 90 mmHg
  Estimate (risk of MACE, IDeg compared to IGlar): 0.64
[1]; subgroup: Not Hispanic or Latino AND Non-White
  Estimate (risk of MACE, IDeg compared to IGlar): 0.64
[1]; subgroup: Not Hispanic or Latino AND triglycerides > 1.7 mmol/L
  Estimate (risk of MACE, IDeg compared to IGlar): 0.79
[1]; subgroup: Previous smoker AND age < 65 years
  Estimate (risk of MACE, IDeg compared to IGlar): 0.73
[1]; subgroup: Previous smoker AND cholesterol ≥ 3 mmol/L
  Estimate (risk of MACE, IDeg compared to IGlar): 0.79
[1]; subgroup: Previous smoker AND diastolic blood pressure ≥ 80 mmHg
  Estimate (risk of MACE, IDeg compared to IGlar): 0.66
[1]; subgroup: Previous smoker AND treated with statins
  Estimate (risk of MACE, IDeg compared to IGlar): 0.79
[1]; subgroup: Previous smoker AND triglycerides > 1.7 mmol/L
  Estimate (risk of MACE, IDeg compared to IGlar): 0.73
[1]; subgroup: Pulse ≥ 70 bpm AND diastolic blood pressure ≥ 80 mmHg
  Estimate (risk of MACE, IDeg compared to IGlar): 0.74
[1]; subgroup: Pulse ≥ 70 bpm AND triglycerides > 1.7 mmol/L
  Estimate (risk of MACE, IDeg compared to IGlar): 0.76
[1]; subgroup: Pulse ≥ 70 mmHg AND treated with statins
  Estimate (risk of MACE, IDeg compared to IGlar): 0.72
[1]; subgroup: Systolic blood pressure <140 mmHg AND HDL ≥ 1.0 mmol/L
  Estimate (risk of MACE, IDeg compared to IGlar): 0.73
[1]; subgroup: Triglycerides > 1.7 mmol/L AND HDL ≥ 1.0 mmol/L
  Estimate (risk of MACE, IDeg compared to IGlar): 0.69
[1]; subgroup: Triglycerides > 1.7 mmol/L AND treated with statins
  Estimate (risk of MACE, IDeg compared to IGlar): 0.78
[2]; Baseline
  Free fatty acids: 0.5 mmol/L
  HDL cholesterol: 1.2 mmol/L
  LDL cholesterol: 2.4 mmol/L
  Total cholesterol: 4.6 mmol/L
  Triglycerides: 1.8 mmol/L
  VLDL cholesterol: 0.8 mmol/L
[2]; End of trial (26 weeks)
  Free fatty acids: 0.4 mmol/L
  HDL cholesterol: 1.2 mmol/L
  LDL cholesterol: 2.4 mmol/L
  Total cholesterol: 4.5 mmol/L
  Triglycerides: 1.6 mmol/L
  VLDL cholesterol: 0.7 mmol/L
[2]; change from baseline, 26 weeks
  ΔDiastolic blood pressure: −0.7 mmHG
  ΔSystolic blood pressure: −1.7 mmHG
[3]
  Systolic Blood Pressure variability, Rate: 0.94
[3]; relative fluctuation of 8-point profile, log scale ANOVA
  8PP SMPG - Within-day variability, Rate: 0.98
[3]; variances analysed on log scale, ANOVA
  Pre-breakfast SMPG - between-day variability, Rate: 0.90
[4]
  Adverse event and tolerability profiles: consistent with previous findings
  ΔHeart rate: −0.6 bpm
